Data reported in patent publication US20130337564A1, “Treatment of Pluripotent Cells” (Janssen Biotech, Inc., priority 2012, published 2013).

Assays:
Assay type in all cases: cell-based
[1] = system: human embryonic stem cell line H1; assay: Dose titration secondary assay: cell number, H1; conditions: positive control (Wnt3a/Activin A) normalized to 1.000
Experimental: (§1) It was important to confirm the activity of hits identified from primary screening and further analyze the range of activity by dose titration. New samples of a selective subset of primary screening hits were obtained as dry powders, solubilized to make fresh stock reagents, and diluted into secondary confirmation assays to evaluate effects on human embryonic stem cells.
(§2) Culture of two human embryonic stem cells (H1 and H9) was conducted as described in Example 1. Colonies of cells were maintained in an undifferentiated, pluripotent state on Matrigel™ ([…]) coated polystyrene plastic, using a 1:30 dilution of Matrigel™ in DMEM:F12 to coat the surface. Cells were split by enzymatic passage every four days on average. Passage was performed by exposing cell monolayers to a solution of collagenase (1 mg/ml; Sigma-Aldrich) for 10 to 60 minutes at 37° C. followed by gentle scraping with a pipette tip to recover cell clusters. Clusters were allowed to sediment by gravity, then washed to remove residual collagenase. Cell clusters were split at a 1:3 ratio for maintenance culture or a 1:1 ratio for subsequent assay. The human embryonic stem cell lines were maintained at less than passage 50 and routinely evaluated for normal karyotypic phenotype and absence of mycoplasma contamination.
(§3) Cell clusters of the H1 or H9 human embryonic stem cell lines used in the assay were evenly resuspended in culture medium and plated onto Matrigel™-coated 96-well Packard VIEWPLATES (PerkinElmer) in volumes of 100 μl/well. MEF conditioned medium supplemented with 8 ng/ml bFGF was used for initial plating and expansion. Daily feeding was conducted by aspirating spent culture medium from each well and replacing with an equal volume of fresh medium. Cultures were allowed to expand one to three days after plating prior to initiating assay. Plates were maintained at 37° C., 5% CO2 in a humidified box for the duration of assay.
(§4) A subset of hits resulting from primary screening was used for follow-up study and subsequent secondary assays. Twenty compounds available as dry powders were solubilized as 10 mM stocks in DMSO and stored dessicated at […] until use Immediately prior to assay, compound stocks were diluted 1:1000 to make 10 μM test compound in DMEM:F12 base medium (Invitrogen) supplemented with 0.5% FCS (HyClone) and 100 ng/ml Activin A (R&D Biosystems). This was further diluted two-fold in series to make a seven point dilution curve for each compound, also in DMEM:F12 base medium with 0.5% FCS and 100 ng/ml Activin A.
(§5) Assay was initiated by aspirating culture medium from cell monolayers in each well followed by three washes in PBS to remove residual growth factors and serum. Test volumes of 100 μl per well were added back containing medium with 0.5% FCS and different concentrations of inhibitor compounds with 100 ng/ml Activin A, without Wnt3a. Positive control wells contained the same base medium with 0.5% FCS and with 20 ng/ml Wnt3a (R&D Biosystems) in the absence of test compound. Negative control wells contained the same base medium with 0.5% FCS, in the absence of Activin A, Wnt3a, or test compound. Assay wells were aspirated and fed again with identical concentrations of test compound or control solutions on day 2 of assay. On days 3 and 4, all assay wells were aspirated and fed with DMEM:F12 supplemented with 2% FCS and 100 ng/ml Activin A in the absence of both test compound or Wnt3a. Parallel negative control wells were maintained on days 3 and 4 in DMEM:F12 base medium with 2% FCS.
(§6) At the end of culture, cells in 96-well plates were washed twice with PBS then fixed with 4% paraformaldehyde at room temperature for 20 minutes, washed three times more with PBS, and then permeabilized with 0.5% Triton X-100 for 20 minutes at room temperature. After fixing and permeabilizing, cells were washed again three times with PBS and then blocked with 4% chicken serum (Invitrogen) in PBS for 30 minutes at room temperature. […]

[2] = system: Sox17 expression in human embryonic stem cell line H9; assay: Dose titration secondary assay: Sox17 intensity, H9
Experimental: as §1, §2, §3, §4, §5, §6

[3] = system: Sox17 expression in human embryonic stem cell line H1; assay: Dose titration secondary assay: Sox17 intensity, H1
Experimental: as §1, §2, §3, §4, §5, §6

[4] = system: human embryonic stem cell line H9; assay: Dose titration secondary assay: cell number, H9
Experimental: as §1, §2, §3, §4, §5, §6

SMILES | Cell number ([1]; Conc 0.156 μM) | Cell number ([1]; Conc 0.313 μM) | Cell number ([1]; Conc 0.625 μM) | Cell number ([1]; Conc 1.25 μM) | Cell number ([1]; Conc 2.5 μM) | Cell number ([1]; Conc 5 μM) | Cell number ([1]; Conc 10 μM) | Sox17 Intensity ([2]; 0.156 μM compound) | Sox17 Intensity ([2]; 0.313 μM compound) | Sox17 Intensity ([2]; 0.625 μM compound) | Sox17 Intensity ([2]; 1.25 μM compound) | Sox17 Intensity ([2]; 2.5 μM compound) | Sox17 Intensity ([2]; 5 μM compound) | Sox17 Intensity ([2]; 10 μM compound) | Sox17 Intensity ([3]; 0.156 μM compound) | Sox17 Intensity ([3]; 0.313 μM compound) | Sox17 Intensity ([3]; 0.625 μM compound) | Sox17 Intensity ([3]; 1.25 μM compound) | Sox17 Intensity ([3]; 2.5 μM compound) | Sox17 Intensity ([3]; 5 μM compound) | further results
O=C1NC(=O)C2=C1c1cn(c3ccccc13)CCOCCOCCN(Cc1cccc3ccccc13)CCn1cc2c2ccccc21 [Compound 136, 14-(Naphthalen-1-ylmethyl)-6,7,9,10,13,14,15,16-octahydro-12H,23H-5,26:17,22-di(metheno)dibenzo[k,q]pyrrolo[3,4-n][1,4,7,10,19]dioxatriazacyclohenicosine-23,25(24H)-dione] | 0.742 | 0.868 | 0.910 | 0.850 | 0.428 | 0.173 | 0.058 | 0.125 | 0.129 | 0.212 | 0.202 | 0.209 | 0.154 | 0.129 | 0.666 | 0.859 | 0.887 | 0.783 | 0.373 | 0.141 | Sox17 Intensity ([3]; 10 μM compound): 0.054; Cell number ([4]; 0.156 μM compound): 0.147; Cell number ([4]; 0.313 μM compound): 0.192; Cell number ([4]; 0.625 μM compound): 0.267; Cell number ([4]; 1.25 μM compound): 0.334; Cell number ([4]; 2.5 μM compound): 0.388; Cell number ([4]; 5 μM compound): 0.320; Cell number ([4]; 10 μM compound): 0.208
O=C1NC(=O)C2=C1c1cn(c3ccccc13)CCOCCOCCN(Cc1cccs1)CCn1cc2c2ccccc21 [Compound 133, 14-(2-Thienylmethyl)-6,7,9,10,13,14,15,16-octahydro-12H,23H-5,26:17,22-di(metheno)dibenzo[k,q]pyrrolo[3,4-n][1,4,7,10,19]dioxatriazacyclohenicosine-23,25(24H)-dione] | 0.890 | 0.888 | 1.106 | 1.124 | 0.592 | 0.262 | 0.096 | 0.149 | 0.398 | 0.678 | 1.110 | 0.857 | 0.194 | 0.129 | 0.888 | 0.937 | 1.061 | 0.993 | 0.497 | 0.071 | Sox17 Intensity ([3]; 10 μM compound): 0.034; Cell number ([4]; 0.156 μM compound): 0.206; Cell number ([4]; 0.313 μM compound): 0.540; Cell number ([4]; 0.625 μM compound): 0.899; Cell number ([4]; 1.25 μM compound): 1.477; Cell number ([4]; 2.5 μM compound): 1.368; Cell number ([4]; 5 μM compound): 1.067; Cell number ([4]; 10 μM compound): 0.785
CN1CCN(C)CCn2cc(c3ccccc32)C2=C(C(=O)NC2=O)c2cn(c3ccccc23)CC1 [Compound 111, 8,11-Dimethyl-6,7,8,9,10,11,12,13-octahydro-20H-5,23:14,19-di(metheno)dibenzo[k,q]pyrrolo[3,4-n][1,4,7,10]tetraazacyclooctadecine-20,22(21H)-dione] | 0.659 | 0.785 | 0.801 | 0.914 | 1.031 | 1.128 | 0.412 | 0.054 | 0.080 | 0.268 | 0.332 | 0.432 | 0.543 | 0.822 | 0.628 | 0.667 | 0.755 | 0.819 | 0.887 | 0.846 | Sox17 Intensity ([3]; 10 μM compound): 0.330; Cell number ([4]; 0.156 μM compound): 0.072; Cell number ([4]; 0.313 μM compound): 0.100; Cell number ([4]; 0.625 μM compound): 0.371; Cell number ([4]; 1.25 μM compound): 0.442; Cell number ([4]; 2.5 μM compound): 0.600; Cell number ([4]; 5 μM compound): 0.793; Cell number ([4]; 10 μM compound): 1.117
